Laboratory results published in PubChem BioAssay AID1918947 (Molecular Pharmacology Branch, DTP, NCI, 2023).
“And” between values parts separate entries of the source, which are not always exact repeats. Equal entries are not always repeated.

System: A498 complex spheroid viability
Test: Anticancer human tumor A498 cell line growth inhibition;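 further: spheroids exposed to agents for seven days before readout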;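 on viability, T/C: 100% = DMSO vehicle-treated spheroids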
Details: for viability, T/C: stronger effect = lower value
How it was run: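 Multicellular complex spheroids of tumor cells with human endothelial cells (HUVEC) and mesenchymal stem cells; the LSD1 inhibitor iadademstat was combined with standard-of-care or investigational agents. Top concentration at or near clinical Cmax, half-log dilutions; final DMSO ≤0.25%.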

[1] = curve of first compound, second compound 0.1 µM
[2] = curve of first compound, second compound 0.316 µM
[3] = curve of first compound, second compound 1 µM
[4] = curve of first compound, second compound 3.16 µM
[5] = curve of first compound, second compound 10 µM

CC1(C)CCC(CN2CCN(c3ccc(C(=O)NS(=O)(=O)c4ccc(NCC5CCOCC5)c([N+](=O)[O-])c4)c(Oc4cnc5[nH]ccc5c4)c3)CC2)=C(c2ccc(Cl)cc2)C1 + NC1CC1c1ccc(-c2cccc(O)c2)cc1
IC50 [1]: 4.51 µM | IC50 [2]: 4.16 µM | IC50 [3]: 4.08 µM | IC50 [4]: 3.7 µM | IC50 [5]: 3.84 µM | viability, T/C (second compound 0.1 µM, first compound 0.0316 µM): 109% | viability, T/C (second compound 0.1 µM, first compound 0.1 µM): 106% | viability, T/C (second compound 0.1 µM, first compound 0.316 µM): 102% | viability, T/C (second compound 0.1 µM, first compound 1 µM): 93.1% | viability, T/C (second compound 0.1 µM, first compound 3.16 µM): 69.6% | viability, T/C (second compound 0.1 µM, first compound 10 µM): 7.58% | viability, T/C (second compound 0.316 µM, first compound 0.0316 µM): 108% | viability, T/C (second compound 0.316 µM, first compound 0.1 µM): 112% | viability, T/C (second compound 0.316 µM, first compound 0.316 µM): 96.6% | viability, T/C (second compound 0.316 µM, first compound 1 µM): 88.2% | viability, T/C (second compound 0.316 µM, first compound 3.16 µM): 66.7% | viability, T/C (second compound 0.316 µM, first compound 10 µM): 5.66% | viability, T/C (second compound 1 µM, first compound 0.0316 µM): 103% | viability, T/C (second compound 1 µM, first compound 0.1 µM): 99.6% | viability, T/C (second compound 1 µM, first compound 0.316 µM): 98.9% | viability, T/C (second compound 1 µM, first compound 1 µM): 84.3% | viability, T/C (second compound 1 µM, first compound 3.16 µM): 64.1% | viability, T/C (second compound 1 µM, first compound 10 µM): 6.2% | viability, T/C (second compound 3.16 µM, first compound 0.0316 µM): 100% | viability, T/C (second compound 3.16 µM, first compound 0.1 µM): 91.4% | viability, T/C (second compound 3.16 µM, first compound 0.316 µM): 98.9% | viability, T/C (second compound 3.16 µM, first compound 1 µM): 86.1% | viability, T/C (second compound 3.16 µM, first compound 3.16 µM): 57.2% | viability, T/C (second compound 3.16 µM, first compound 10 µM): 5.72% | viability, T/C (second compound 10 µM, first compound 0.0316 µM): 91.9% | viability, T/C (second compound 10 µM, first compound 0.1 µM): 91.6% | viability, T/C (second compound 10 µM, first compound 0.316 µM): 86.6% | viability, T/C (second compound 10 µM, first compound 1 µM): 77.8% | viability, T/C (second compound 10 µM, first compound 3.16 µM): 59.9% | viability, T/C (second compound 10 µM, first compound 10 µM): 7.06%

Nc1ccccc1NC(=O)c1ccc(CNC(=O)OCc2cccnc2)cc1
viability, T/C (compound 0.00949 µM): 91.2% and 95% | viability, T/C (compound 0.03 µM): 84.3% and 96.3% | viability, T/C (compound 0.0949 µM): 81.4% and 80.8% | viability, T/C (compound 0.3 µM): 53.1% and 62% | viability, T/C (compound 0.949 µM): 19.8% and 24.2% | viability, T/C (compound 3 µM): 1.79% and 6.46% | IC50 (curve of compound): 0.342 µM and 0.416 µM

Nc1ncn(C2CC(O)C(CO)S2)c(=O)n1 (configuration not stated) + NC1CCC(NC2CC2c2ccccc2)CC1
IC50 [1]: 0.154 µM | IC50 [2]: 0.146 µM | IC50 [3]: 0.113 µM | IC50 [4]: 0.074 µM | IC50 [5]: 0.0484 µM | viability, T/C (second compound 0.1 µM, first compound 0.000949 µM): 101% | viability, T/C (second compound 0.1 µM, first compound 0.003 µM): 92.5% | viability, T/C (second compound 0.1 µM, first compound 0.00949 µM): 88.6% | viability, T/C (second compound 0.1 µM, first compound 0.03 µM): 87.5% | viability, T/C (second compound 0.1 µM, first compound 0.0949 µM): 62.1% | viability, T/C (second compound 0.1 µM, first compound 0.3 µM): 31.5% | viability, T/C (second compound 0.316 µM, first compound 0.000949 µM): 95.1% | viability, T/C (second compound 0.316 µM, first compound 0.003 µM): 98.7% | viability, T/C (second compound 0.316 µM, first compound 0.00949 µM): 98% | viability, T/C (second compound 0.316 µM, first compound 0.03 µM): 95.2% | viability, T/C (second compound 0.316 µM, first compound 0.0949 µM): 58.4% | viability, T/C (second compound 0.316 µM, first compound 0.3 µM): 36% | viability, T/C (second compound 1 µM, first compound 0.000949 µM): 90.4% | viability, T/C (second compound 1 µM, first compound 0.003 µM): 94.9% | viability, T/C (second compound 1 µM, first compound 0.00949 µM): 91.6% | viability, T/C (second compound 1 µM, first compound 0.03 µM): 81.7% | viability, T/C (second compound 1 µM, first compound 0.0949 µM): 54.4% | viability, T/C (second compound 1 µM, first compound 0.3 µM): 26.2% | viability, T/C (second compound 3.16 µM, first compound 0.000949 µM): 85.1% | viability, T/C (second compound 3.16 µM, first compound 0.003 µM): 83.5% | viability, T/C (second compound 3.16 µM, first compound 0.00949 µM): 90.6% | viability, T/C (second compound 3.16 µM, first compound 0.03 µM): 75.8% | viability, T/C (second compound 3.16 µM, first compound 0.0949 µM): 43% | viability, T/C (second compound 3.16 µM, first compound 0.3 µM): 23.7% | viability, T/C (second compound 10 µM, first compound 0.000949 µM): 74.5% | viability, T/C (second compound 10 µM, first compound 0.003 µM): 81.7% | viability, T/C (second compound 10 µM, first compound 0.00949 µM): 76.1% | viability, T/C (second compound 10 µM, first compound 0.03 µM): 67.2% | viability, T/C (second compound 10 µM, first compound 0.0949 µM): 25.9% | viability, T/C (second compound 10 µM, first compound 0.3 µM): 14.3%
